Assay results: patent publication US7608392B2, “Diagnostic assay for measuring a cell mediated immune response” (priority 2002, dated 2009)
Where “and” joins values, the source holds several entries; their conditions need not be identical. Identical values can stand only once.

Columns and labels:
Assay type in all cases: cell-based, human
[1] = tested on: whole blood; details: blood collection tube, dextrose added; one line per subject; * OD outside the range of the plate reader
[2] = tested on: whole blood; test: Whole blood IFN-γ response to HuPPD or Mitogen, 24-well plate versus blood collection tube, Quantiferon-TB ELISA (Example 4)
[3] = tested on: whole blood; test: Whole blood IFN-γ response to antigen with or without dextrose, 24-well plate, Quantiferon-TB ELISA (Example 2)
[4] = tested on: whole blood

phytohemagglutinin [Mitogen]
IFN-γ, In-Tube Method, Mitogen [1]: 52.50 IU/mL and 4.15 IU/mL and 17.377* IU/mL and 5.57 IU/mL and 2.31 IU/mL and 11.77 IU/mL and 21.063* IU/mL and 4.02 IU/mL and 11.23 IU/mL and 17.05* IU/mL
Amount of IFN-γ detected, Mitogen 24-well ([2]; after subtraction of saline negative control, 24-well plate, one line per donor): 83.34 IU/mL and 1.13 IU/mL and 10.04 IU/mL and 6.85 IU/mL and 12.32 IU/mL and 8.77 IU/mL and 76.98 IU/mL and 65.02 IU/mL and 8.14 IU/mL and −0.56 IU/mL and 21.79 IU/mL and 30.58 IU/mL and 28.26 IU/mL and 8.10 IU/mL and 2.75 IU/mL and 6.14 IU/mL and 14.05 IU/mL and 2.46 IU/mL and 11.80 IU/mL and 7.69 IU/mL
Amount of IFN-γ detected, Mitogen Tube ([2]; after subtraction of saline negative control, blood collection tube, mean of duplicate tubes, one line per donor): 61.94 IU/mL and 13.13 IU/mL and 7.95 IU/mL and 3.45 IU/mL and 13.32 IU/mL and 5.29 IU/mL and 68.58 IU/mL and 47.53 IU/mL and 5.80 IU/mL and −0.79 IU/mL and 16.34 IU/mL and 22.52 IU/mL and 19.16 IU/mL and 5.71 IU/mL and 1.88 IU/mL and 3.55 IU/mL and 9.07 IU/mL and 7.91 IU/mL and 8.73 IU/mL and 3.52 IU/mL
Mean fold increase, Mitogen Tube/24-well ([2]; mean over donors): 0.73
Mitogen Tube/24-well ([2]; ratio of IFN-γ, one line per donor): 0.74 (3×) and 0.79 and 0.05 and 1.08 and 0.60 and 0.89 and 0.73 and 0.71 (2×) and 0.75 and 0.68 and 0.58 and 0.65 and 3.22 and 0.46
Concentration of IFN-γ found for each plasma sample, +Dextrose ([3]; 24-well plate, 20 hours 37° C., dextrose 2 mg/mL, one line per donor): 122.76 IU/mL and 25.71 IU/mL
Concentration of IFN-γ found for each plasma sample, −Dextrose ([3]; 24-well plate, 20 hours 37° C., without dextrose, one line per donor): 108.72 IU/mL and 28.67 IU/mL
Fold increase with dextrose ([3]; IFN-γ +Dextrose 2 mg/mL / −Dextrose, one line per donor): 0.90 and 1.13
Change in IFN-γ detected with addition of dextrose (in words) ([3]; dextrose 2 mg/mL, 24-well plate): slight increase in IFN-γ detected for one of the donors and a slight decrease for the other

tetanus toxoid
Mean fold increase, TetTox Tube/24 well [4]: 4.5 and 4.51
